From US20050239873A1 (priority 1999, published 2005)

Key:
Stability in plasma [1] = type: in vitro ADME, human; details: for stability: 60 min
Procedure: (§1) For analysis of samples, two volumes of cold methanol-acetonitrile (50:50, v/v) were added to portions of plasma, culture medium, or cell extract. The preparations were mixed and then centrifuged to obtain clear supernatants, which were dried at room temperature by compressed air. The residues were dissolved in the mobile phase, and a portion was injected onto the HPLC column.
(§2) The HPLC equipment consisted of a Hewlett Packard 1050 ChemStation with a fluorescence detector (Agilent 100 series). […] The mobile phase was methanol:ammonium acetate buffer (87:13 v/v; 0.2 M; pH 5.8, adjusted with HCl). The flow rate was 1 ml/min. The column elute was monitored fluorometrically at an excitation wavelength of 232 nm and an emission wavelength of 418 nm. The amounts of test compounds present in samples were determined from the peak areas.
(§3) Samples of mouse, rat, dog, and human plasma were incubated at 37° C. with and without addition of NaF (2.5 mg/ml) and EDTA (1 mg/ml). To these preparations, 2-OMe antimycin A1, 2-OMe antimcyin A2, 2-OMe antimycin A3, or 2-OMe antimycin A5, dissolved in methanol, was added to final concentrations of 500 ng/ml. Portions of plasma, taken at selected times after addition of the 2-OMe antimycin analog, were extracted and analyzed.
(§4) Similarly, the stability of 2-OMe antimycin A1, 2-OMe antimycin A2, […] in the plasma from mice and humans was evaluated at −80° C. From these preparations, portions were analyzed immediately; other portions were stored at -80° C. and analyzed after 1, 2, and 4 weeks.

Stability in plasma [2] = type: in vitro ADME, dog; details: 37° C., 60 min; for stability: presence of NaF/EDTA
Procedure: as §1, §2, §3

plasma proteins [3] = test: Binding to plasma proteins (ultrafiltration); type: in vitro ADME, rat; details: presence of NaF+EDTA, 1000 ng/ml
Stability in plasma [4] = type: in vitro ADME, rat; details: 37° C., 60 min, presence of NaF/EDTA
Procedure: as §1, §2, §3

plasma proteins [5] = test: Binding to plasma proteins (ultrafiltration); type: in vitro ADME, mouse; details: presence of NaF+EDTA, 1000 ng/ml
Procedure: (§5) Solutions of 2-OMe antimycin A3 were diluted with plasma (dog or human) containing NaF+EDTA to final concentrations of 1.0 or 0.2 μg/ml. Controls were diluted with water to the same final concentrations. These preparations were incubated at 37° C. for 20 min, at which time portions were taken and placed in the sample reservoirs of Amicon Centrifree® ultrafiltration systems (Millipore Co., Bedford, Mass.). At 37° C., the filter systems were centrifuged until the reservoirs were dry. From each filtrate, portions were taken for analysis by HPLC. The amounts present were designated as “free drug” (F). The concentrations of the unfiltered solutions were also determined by triplicate analyses. This amount represented the “total drug” concentration (T). The percentage of 2-OMe antimycin A3 bound to plasma proteins was calculated by the following formula: % bound=((T−F)/T)×100

plasma proteins [6] = test: Binding to plasma proteins (ultrafiltration); type: in vitro ADME, dog; details: presence of NaF+EDTA, 1000 ng/ml
Procedure: as §5
Similar experiments were performed for 2-OMe antimycin A3 in dog or rat plasma in the absence of NaF/EDTA.

Stability in plasma [7] = type: in vitro ADME, mouse; details: for stability: 37° C., 60 min
Procedure: as §1, §2, §3, §4

RPMI-8226 cells = test: GI50 assay (MTT); type: cell-based, human
Procedure: RPMI 8226 cells were grown in 96 well plates for 24 h prior to addition of 2-methoxy Antimycins. Antimycin stocks in DMSO were serially diluted in RPMI media. Cells were incubated for 48 h with compounds at final compound concentrations ranging from 10^−4 to 10^−8 M. MTT assays were performed in quadruplicate and percent growth inhibitions were calculated as (A570 (control cells)—A570 (treated cells))/A570 (control cells). The GI50 was extrapolated from semi-log plots of the dose response for each compound. […] After 72 h drug exposures, 1 μCi/ml [^3H]-thymidine was added to wells. Cells were incubated for an additional 24 h, and then transferred to GF/C filter plates (Packard) using a plate washer. Filters were dried, added to scintillant, and counted in a TopCount scintillation counter (Packard). Drug response was expressed as the percentage of vehicle-treated controls, and each value shown as the average of three determinations.

plasma proteins [8] = test: Binding to plasma proteins (ultrafiltration); type: in vitro ADME, human; details: presence of NaF+EDTA, 1000 ng/ml
Procedure: as §5

[9] = biological target: T1, recombinant human Bcl-2ΔC22 (Homo sapiens, UniProt P10415); test: Antimycin A3 fluorescence binding and competition assay; details: 2 μM each, Bcl-2 3 μM, 7.5 minutes, 22.5° C.
T1 construct: poly-His (N); made in house
T1 sequence (P10415 1-217 limits assumed, stated change not applied): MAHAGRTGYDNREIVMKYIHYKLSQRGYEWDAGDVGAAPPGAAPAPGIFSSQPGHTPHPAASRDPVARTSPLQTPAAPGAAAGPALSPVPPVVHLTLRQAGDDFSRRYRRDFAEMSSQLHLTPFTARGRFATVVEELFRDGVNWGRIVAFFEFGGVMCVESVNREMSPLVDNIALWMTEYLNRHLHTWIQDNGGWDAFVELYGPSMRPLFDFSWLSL
Procedure: In this assay, 0 to 5 μM antimycin A3 (Sigma Chemical Co., St. Louis, Mo.) was added to a physiological buffer (50 mM Tris-HCl pH 8.0, 0.2 M NaCl, 2 mM EDTA, 0.5% v/v glycerol) containing recombinant Bcl-2 or BCl-xL protein under conditions that permitted antimycin A3 to bind to the BH3-binding domain of Bcl-2 or BCl-xL (22.5° C. on a Hitachi F-2500 fluorescence spectrofluorimeter equipped with a thermostatted cell holder). […] The excitation wavelength was 335 nm, and the maximum emission wavelength for antimycin A3 was 428 nm with a slit width of 10 nm. The samples were mixed in a quartz cuvette and checked for inner filter effect over the concentration range of antimycin A3 used for this study. Blanks containing antimycin A3 at the same concentration as the experimental samples were used as controls in all measurements and necessary background corrections were made.
Recombinant human Bcl-2ΔC22 (a recombinant human Bcl-2 with a delection of 22 amino acid residue membrane anchor sequence from the carboxyl end) and mouse Bcl-xLΔC20 (a recombinant murine BCl-xL with a delection of the 20 amino acid residue membrane anchor sequence from the carboxyl end) fused with poly-His at the N-terminus were chromatographically purified to homogeneity. The concentrations of antimycin A3 and stock solutions of recombinant proteins were quantitated using an extinction coefficient of 7.24/mM/cm at 320 nm and by Bradford assay, respectively. The stoichiometric ratio of antimycin A3 and Bcl-2 producing the maximal change in antimycin A3 fluorescence was determined with incremental addition of antimycin A3 to a 1.98 μM solution of recombinant Bcl-2 in a volume of 2.1 milliliters. […] For peptide displacement experiments, a solution of 2 μM antimycin A3 and 3 μM Bcl-2 was allowed to reach binding equilibrium at 4° C. prior to fluorescence measurements. Native peptide corresponding to the BH3 domain of Bak (72-[…]87 (SEQ ID NO:1)) or a mutant peptide with a single amino acid change (Leu78Ala-BH3) was added to the solution and the fluorescence measurements were repeated. […]

Bcl-xL(ΔC) WT = biological target: T2, Bcl-xL(ΔC) WT (Homo sapiens, UniProt Q07817); test: Pore-forming activity, calcein release from liposomes; type: biochemical
T2 construct: inferred from Ni-NTA purification and the pET22b(+) NdeI/XhoI cloning); made in house; host or cells: Escherichia coli BL21(DE3) carrying pUB520
T2 sequence (Q07817 1-211 limits assumed, stated change not applied): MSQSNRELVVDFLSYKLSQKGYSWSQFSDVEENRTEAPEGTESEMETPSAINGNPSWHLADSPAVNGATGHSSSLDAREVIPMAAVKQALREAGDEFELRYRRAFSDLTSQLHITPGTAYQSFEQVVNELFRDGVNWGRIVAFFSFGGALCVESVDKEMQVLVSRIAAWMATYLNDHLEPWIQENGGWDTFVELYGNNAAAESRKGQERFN
Procedure: Large unilamellar vesicles composed of 60% dioleoylphophatidylcholine and 40% dioleoylphosphatidylglycerol were prepared by the extrusion method of Mayer et al., supra. Lipid stocks, in chloroform, were mixed and dried under a stream of nitrogen gas. The lipid was resuspended by vortexing for 30 min in a solution of 40 mM calcein (Molecular Probes), 25 mM KCl, and 10 mM KOAc, pH 5.0. After 10 freeze-thaw cycles, the lipid suspension was extruded through two 0.1 μm pore diameter Nucleopore filters. Non-entrapped dye was removed by passage over a Sephadex G10 column (Amersham Biosciences). Lipid concentration was measured using the ammonium ferrothiocyanate method (Stewart, Anal. Biochem. 104:10-14, 1980).
For pore assays, recombinant truncated Bcl-2 family protein or mutant protein (Bcl-xL(ΔC)) (500 nM) was added to large unilamellar vesicles (60 μM lipid concentration) in 100 mM KCl, 10 mM KOAc, pH 5.0, and fluorescence measured (490 nm excitation, 520 nm emission) with a Fluoromax-3 spectrophotometer. Peptides of the BH3 domain were incubated with the BCl-xL(ΔC) 5 min prior to mixing with liposomes. AA1 was added to liposomes 1 min before adding the Bcl-xL(ΔC) protein. Samples for kinetic assays were analyzed in a thermostatted cuvette at 37° C. with constant stirring. Dose responses were measured in black quartz microplates (Hellma) at room temperature. Calcein release was expressed as percentage of maximum release with detergent lysis (0.1% Triton X-100).

[10] = system: TABX2S cells (over-expressing Bcl-xL); test: cells
Excerpt: Briefly, a DNA fragment encoding the full-length mouse BCl-xL cDNA was isolated from the plasmid PBS.BCL-xL (Tzung et al., Am. J. Path. 150:1985-1995, 1997, incorporated herein by reference in its entirety) by digestion with the restriction endonuclease EcoRI. This EcoRI fragment was cloned into the EcoRI site of the mammalian expression vector pSFFV (Fuhlbrigge et al., Proc. Nat. Acad. Sci. USA 85:5649-5653, 1988) in both sense and antisense orientations, to form expression plasmids pSFFV.Bcl-xL(sense) or pSFFV.Bcl-xL(antisense), respectively. The tumorigenic murine hepatocyte cell line TAMH was transfected by lipofection (Lipofectamine, Life Technologies, Rockville, Md., according to the manufacturer's recommendations) with the plasmids pSFFV.neo (the control), pSFFV.Bcl-xL(sense) or pSFFV.Bcl-xL(antisense). […] Transfectants were selected for the acquisition of neomycin resistance by growing cells in the presence of 750 μg/ml of G418. Bulk transfectants were cloned by limiting dilution and individual clones were screened by immunoblot analysis to determine the level of BCl-xL protein expression as described below.
Selected transfectants were then tested for whole cell sensitivity to several apoptotic agents. Transfected cells were cultured to reach approximately 80% confluency prior to plating an equal number of cells from selected clones on 12-well tissue culture plates. The transplanted cells were treated with the following apoptotic agents: 5 μM doxorubicin for 48 hours; 5 μM cisplatin for 48 hours; or with 200 U/ml tumor necrosis factor (TNF) plus 1 μg/ml actinomycin D for 18 hours. Cell viability was determined by trypan blue dye exclusion. The percentage of viable cells was calculated by the number of viable cells (treated with a particular apoptogenic agent) divided by the number in the control group (untreated).
TABX2S cells and TABX1A cells were also examined for the effects of various mitochondrial inhibitors. […] Azide was diluted from an aqueous stock solution. […] Controls received an equivalent concentration of diluent. At various time points after drug treatment, cells were trypsinized, and cell viability was determined by trypan blue dye exclusion. The number of viable cells were counted and normalized to control group (i.e., % control=number of viable cells (treated group)/number of viable cells (control group)×100).

SMILES	stability (Stability in plasma [1]; 37° C., presence of NaF/EDTA)	decrease in concentration (Stability in plasma [1]; 37° C., presence of NaF/EDTA)	amounts remaining after 4 weeks (Stability in plasma [1]; -80° C., presence of NaF/EDTA)	amounts remaining after 4 weeks (Stability in plasma [1]; −80° C., absence of NaF/EDTA)	added amount remaining (Stability in plasma [2]; absence of NaF/EDTA, 500 ng/ml)	stability (Stability in plasma [2])	Protein binding, Rat (plasma proteins [3])	stability (Stability in plasma [4])	Protein binding, Mouse (plasma proteins [5])	Protein binding, Dog (plasma proteins [6])	stability (Stability in plasma [7]; presence of NaF/EDTA)	amounts remaining after 4 weeks (Stability in plasma [7]; -80° C., presence of NaF/EDTA)	amounts remaining after 4 weeks (Stability in plasma [7]; −80° C., absence of NaF/EDTA)	GI50 (RPMI-8226 cells; 48 h, MTT)	Protein binding, Human (plasma proteins [8])	competition with antimycin A3 for Bcl-2 [9]	effect on Bcl-xL pore-forming activity (Bcl-xL(ΔC) WT)	activity relative to 2-OMeA1, 2-OMeA2 and 2-OMeA3 (GI50) (RPMI-8226 cells)	difference in sensitivity of the two cell lines ([10]; TABX2S vs TABX1A)	time until cell death apparent ([10]; after treatment, TABX2S and TABX1A cells)
CCCCCC[C@H]1C(=O)O[C@H](C)[C@H](NC(=O)c2cccc(NC=O)c2OC)C(=O)O[C@@H](C)[C@@H]1OC(=O)CCC [2-OMeA2, 2-methoxy antimycin A2]	generally stable	18%	83%	70%	53%	generally stable	99.9%	generally stable	99.7%	99.9%	generally stable	77%	63%	12.2 µM	>99.9%					
CCCC[C@H]1C(=O)O[C@H](C)[C@H](NC(=O)c2cccc(NC=O)c2OCC(=O)c2ccccc2)C(=O)O[C@@H](C)[C@@H]1OC(=O)CC(C)C [phenacyl ether antimycin A3]																did not displace antimycin A3	no effect			
CC[C@H]1C(=O)O[C@H](C)[C@H](NC(=O)c2cccc(NC=O)c2OC)C(=O)O[C@@H](C)[C@@H]1OC(=O)CC(C)C [2-OMeA5, 2-OMe antimycin A5]	stable		92%	79%		stable	>99.9%	notable decreases in concentration	99.7%	99.1%	notable decreases in concentration	63%	27%		99.6%			approximately ⅓		
CC(C)[C@@H]1NC(=O)[C@H](C)OC(=O)[C@@H](C(C)C)NC(=O)[C@@H](C(C)C)OC(=O)[C@H](C(C)C)NC(=O)[C@H](C)OC(=O)[C@@H](C(C)C)NC(=O)[C@@H](C(C)C)OC(=O)[C@H](C(C)C)NC(=O)[C@H](C)OC(=O)[C@@H](C(C)C)NC(=O)[C@@H](C(C)C)OC1=O [valinomycin]																			no significant differences	six to eight
